Data on three compounds can be found in patent US20240156893A1 (priority 2021, published 2024).

Data set [1] relates to Respiratory Syncytial Virus (RSV). Briefly: TCID50 virucidal assay, LTX-109 against RSV on Hep2 cells. The class given is cell-based. The following applies: for TCID50/ml ± SEM (average virus titre recovered): 1 h incubation, Hep2 cells. The procedure: The experiment was performed in triplicates.
(§1) Appropriate controls were also performed.

The test system of data set [2] is MDCK-II cells. The experiment in a line: Parallel residual cytotoxicity test without virus on MDCK-II assay cells (Example 2). The following applies: 1% LTX-109, after filtration, no virus. In kind it is cell-based, canine. The protocol:
as §1

A further data set deals with SARS-CoV-2. The class given is cell-based.
Data set [3] deals with Influenza A virus (IAV, A/WSN/33). In kind it is cell-based.
Another data set has as its system Hep2 cells. Particulars: 0.1% LTX-109, after filtration, no virus.
Data set [4] relates to Lenti virus-like particle expressing VSV-G.
In data set [5] the test system is SARS-CoV-2 isolate England/02/2020. In kind it is cell-based. The following applies: SARS-CoV-2, contact time 1 h at RT; 1% LTX-12 (w/v) in PBS or 0.2% Triton in PBS; Vero cells.
In another data set the test system is Vero cells. The experiment in a line: Parallel residual cytotoxicity test without virus on Vero assay cells (Example 5). In kind it is cell-based, African green monkey. The following applies: after filtration, no virus, 1% LTX-12 or 0.2% Triton. The protocol:
as §1

Data set [6] has as its system MDCK-II cells. Briefly: Parallel residual cytotoxicity test without virus on MDCK-II assay cells (Example 6). The class given is cell-based, canine. The following applies: after filtration, no virus, 1% LTX-7 or 0.2% Triton X-100. The procedure: as §1
The test system of data set [7] is Influenza A strain A/WSN/33 (H1N1). The class given is cell-based, Influenza A virus.

Values joined by “and” are separate entries in the source; they are usually repeats but may differ in a detail not shown here. Equal values may be shown once.

In the case of `CC(C)(C)c1cc(C(C)(C)C)c2[nH]c(C(C)(C)C)c(CC(NC(=O)C(N)CCCNC(=N)N)C(=O)NC(CCCNC(=N)N)C(=O)NCCc3ccccc3)c2c1` (centres unmarked) [LTX-109], the “TCID50/ml ± SEM (average virus titre recovered)” value (shortened to “TCID50/ml ± SEM”) in data set [1] (0.1% LTX-109 (w/v) in PBS) was 8.76E+01 TCID50/ml and 8.76E+01 ± 4.11E+01 TCID50/ml; in data set [1] (1% LTX-109 (w/v) in PBS), 1.58E+02 TCID50/ml and 1.58E+02 ± 0.00E+00 TCID50/ml; in the data set with SARS-CoV-2 (SARS-CoV-2, 1% LTX-109 (w/v) in PBS, 1 h incubation, Vero cells), 1.99E+02 TCID50/ml and 1.99E+02 ± 4.11E+01 TCID50/ml; in [3] (1% LTX-109 (w/v) in PBS, 1 h incubation, MDCK-II cells), 1.58E+01 TCID50/ml and 1.58E+01 ± 0.00E+00 TCID50/ml. Besides, the “Log (virus titre)” value turned out to be 1.78 Log in data set [1] (0.1% LTX-109, 1 h); 2.20 Log in [1] (1% LTX-109, 1 h); 2.28 Log in the data set with SARS-CoV-2 (SARS-CoV-2, 1% LTX-109, 1 h); 1.20 Log in data set [3] (1% LTX-109, 1 h). Moreover, the “Percentage (decrease in infectivity vs PBS control)” value in [1] (0.1% LTX-109, 1 h) is 99.9% and 99.97%; in data set [1] (1% LTX-109, 1 h), 99.9% and 99.949%; with SARS-CoV-2 (SARS-CoV-2, 1% LTX-109, 1 h), 99.99% and 99.995%; in [3] (1% LTX-109, 1 h), 99.9% and 99.969%. For the same compound, the “With Filtration: cytotoxicity on assay cells (dilution up to which seen)” value with MDCK-II cells [2] is “only up to the first dilution”. The “With Filtration: cytotoxicity on assay cells” value in the data set with Hep2 cells was “No cytotoxicity”. Besides, the “Effect on envelope of Lenti-virus-like particles (electron microscopy)” value in data set [4] is on record as “disrupted (or dissolved) envelope”.
In the case of `CC(C)(C)c1cc(C(C)(C)C)c2[nH]c(C(C)(C)C)c(CC(NC(=O)C(N)CCCCN)C(=O)NC(CCCCN)C(=O)NCCc3ccccc3)c2c1` (stereo not drawn) [LTX-12, Lys-Tbt-Lys-NH—CH2—CH2-Ph], the “TCID50/ml ± SEM” value in data set [5] is 1.58E+02 TCID50/ml and 1.58E+02 ± 0.00E+00 TCID50/ml. Besides, the “Cytotoxicity on assay cells” value in the data set with Vero cells was “no significant cytotoxicity”.
Turning to `N=C(N)NCCCC(N)C(=O)NC(Cc1ccc(-c2ccc3ccccc3c2)cc1)C(=O)NC(CCCNC(=N)N)C(=O)NCCc1ccccc1` (centres unmarked) [LTX-7, Arg-Phe(4-(2-Naphthyl))-Arg-NH—CH2—CH2-Ph], the “Cytotoxicity on assay cells (dilution at which seen)” value in the data set with MDCK-II cells [6] is “neat”. In addition, the “Rounded % (reduction)” value in [7] (contact time 1 h, 1% LTX-7 or 0.2% Triton X-100) came to 99.99%. The “TCID50/ml ± SEM” value in data set [7] (contact time 1 h at RT, 1% LTX-7 (w/v) in PBS or 0.2% Triton X-100 in PBS, MDCK-II cells) is 1.58E+01 TCID50/ml and 1.58E+01 ± 0.00E+00 TCID50/ml.
